BindingDB's records for doi:10.1021/jm7013887 (Abbott Laboratories, 2008)

Experiments:
[1] = target: T1, Diacylglycerol O-acyltransferase 1 (Homo sapiens, UniProt O75907); experiment: In Vitro FlashPlate Assay; conditions: pH 7.5; 22 °C
T1 sequence (O75907 whole entry): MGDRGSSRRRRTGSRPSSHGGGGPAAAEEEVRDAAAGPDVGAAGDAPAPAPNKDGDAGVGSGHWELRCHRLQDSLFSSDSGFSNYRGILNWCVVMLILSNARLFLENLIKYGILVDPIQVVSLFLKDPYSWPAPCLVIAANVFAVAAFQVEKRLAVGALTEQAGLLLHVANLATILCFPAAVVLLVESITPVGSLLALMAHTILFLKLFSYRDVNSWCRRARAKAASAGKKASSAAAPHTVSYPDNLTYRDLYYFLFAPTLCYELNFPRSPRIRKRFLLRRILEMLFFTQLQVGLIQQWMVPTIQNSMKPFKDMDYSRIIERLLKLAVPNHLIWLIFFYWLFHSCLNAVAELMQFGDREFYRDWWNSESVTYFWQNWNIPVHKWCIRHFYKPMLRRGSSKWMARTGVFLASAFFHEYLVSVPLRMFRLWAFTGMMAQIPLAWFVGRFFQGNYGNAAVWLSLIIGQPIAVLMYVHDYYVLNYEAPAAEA
Description: (§1) DGAT-1 activity was characterized by catalyzing the transfer of the radiolabeled decanoyl group onto the syn-3 position of didecanoyl glycerol. The resultant radiolabeled tridecanoyl glycerol (tricaprin) preferentially binds to the hydrophobic coating on the phospholipid FlashPlate, and radioactivity was measured in the TopCount Plate Reader. Various concentrations (0.0001 uM to 10 uM) of test compounds were added to individual wells prior to the addition of membranes.

[2] = target: T2, Diacylglycerol O-acyltransferase 1 (Mus musculus, UniProt Q9Z2A7); experiment: In Vitro FlashPlate Assay; conditions: pH 7.5; 22 °C
T2 sequence (Q9Z2A7 whole entry): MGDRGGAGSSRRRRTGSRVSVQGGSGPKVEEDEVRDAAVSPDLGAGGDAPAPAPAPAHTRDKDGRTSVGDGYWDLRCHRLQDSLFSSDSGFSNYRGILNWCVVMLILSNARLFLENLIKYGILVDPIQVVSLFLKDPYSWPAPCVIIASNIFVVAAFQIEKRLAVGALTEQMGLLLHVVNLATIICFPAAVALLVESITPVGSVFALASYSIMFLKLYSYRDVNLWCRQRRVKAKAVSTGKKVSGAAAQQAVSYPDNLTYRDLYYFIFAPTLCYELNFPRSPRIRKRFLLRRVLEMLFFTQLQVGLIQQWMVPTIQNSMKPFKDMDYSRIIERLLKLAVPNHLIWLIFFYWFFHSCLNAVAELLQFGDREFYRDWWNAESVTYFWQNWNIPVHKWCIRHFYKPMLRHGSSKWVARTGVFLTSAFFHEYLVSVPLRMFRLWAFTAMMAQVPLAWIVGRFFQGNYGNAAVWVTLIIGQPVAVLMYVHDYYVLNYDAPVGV
Description: as §1

IC50 [1]: 9 nM
IC50 [2]: 28 nM
Compound: COc1ccc(NC(=O)Nc2ccc(-c3ccc(C(=O)[C@@H]4CCC[C@H]4C(=O)O)cc3)cc2)cc1 [(1R,2R)-2-{[4-(4-{[(4-methoxyphenyl)carbamoyl]amino}phenyl)phenyl]carbonyl}cyclopentane-1-carboxylic acid]
